How the values were obtained:
[1] = target: T1, Human Whole Platelet Cyclooxygenase-1 (Homo sapiens, UniProt P23219); test: Human Whole Platelet Cyclooxygenase-1 assay (HWPX); type: cell-based; conditions: for IC50: read-out: HWPX IC50 (parenthetical value)
T1 construct: from tissue; host or cells: human blood: isolated platelets (A4) or heparinised whole blood (A9)
In short: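 Washed platelets from healthy-donor ACD blood were pre-incubated with compound for 10 min, then stimulated with calcium ionophore A23187 (8.8 μM final) for 10 min. Reaction stopped with cold 6 mM EDTA; thromboxane in supernatants quantified with a commercial kit.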

[2] = system: air pouch prostaglandin biosynthesis (Cox-2); test: Carrageenan induced air pouch prostaglandin biosynthesis model (CAP); type: in vivo, rat; conditions: for inhibition in vivo at 3 mg/kg: 4 h, 3 mpk, rat, read-out: CAP % Inhib. @ 3 mpk
In short: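 Male Sprague Dawley rats with dorsal air pouches (20 mL air day 0, 10 mL day 3) received 0.2% lambda carrageenan in saline into the pouch on day 7. Compounds dosed at 0.1 to 10 mg/kg 30 min before carrageenan; pouch lavaged 4 h later, prostaglandins measured by EIA. Percent inhibition versus control mean; ED50 by linear regression.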

[3] = target: T2, human amnionic whole cell cyclooxygenase-2 (WISH cells) (Homo sapiens, UniProt P35354); test: IL-1β induced PGE2 production in WISH cells; type: cell-based; conditions: read-out: Wish IC50 (parenthetical value)
T2 construct: endogenous in cells; host or cells: human amnionic WISH cells, induced with IL-1beta
T2 sequence (P35354 18-604): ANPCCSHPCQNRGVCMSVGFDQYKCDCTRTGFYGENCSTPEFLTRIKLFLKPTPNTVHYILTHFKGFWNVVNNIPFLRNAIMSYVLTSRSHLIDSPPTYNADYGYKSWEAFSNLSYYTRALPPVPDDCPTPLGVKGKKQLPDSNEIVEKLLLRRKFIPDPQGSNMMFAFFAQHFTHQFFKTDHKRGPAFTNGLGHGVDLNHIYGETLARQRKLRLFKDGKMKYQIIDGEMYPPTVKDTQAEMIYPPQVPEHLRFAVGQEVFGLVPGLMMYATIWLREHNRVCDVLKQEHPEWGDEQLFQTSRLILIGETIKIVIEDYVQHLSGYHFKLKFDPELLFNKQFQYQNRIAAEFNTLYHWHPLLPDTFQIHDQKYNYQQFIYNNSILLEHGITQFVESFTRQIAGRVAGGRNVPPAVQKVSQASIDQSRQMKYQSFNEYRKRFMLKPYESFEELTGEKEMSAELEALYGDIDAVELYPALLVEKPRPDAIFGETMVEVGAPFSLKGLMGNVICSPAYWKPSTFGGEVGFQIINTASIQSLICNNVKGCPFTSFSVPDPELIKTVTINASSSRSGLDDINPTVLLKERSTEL
In short: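 Confluent (80%) WISH cells were stimulated with 5 ng/ml IL-1β in serum-free Neuman-Tytell medium, with or without test compound in DMSO (0.01% v/v). PGE2 in the culture medium was measured by EIA against standards prepared in the same medium, read by optical density.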

[4] = target: T3, recombinant human Cox-1 (r-hu Cox1) (Homo sapiens, UniProt P23219); test: Recombinant human PGHS-1 enzyme assay (RHUCX1); type: biochemical; conditions: read-out: RHUCX1 % Inh. at Dose
T3 construct: made in house; host or cells: baculovirus/Sf9 insect cells (microsomes)
T3 sequence (P23219 24-599): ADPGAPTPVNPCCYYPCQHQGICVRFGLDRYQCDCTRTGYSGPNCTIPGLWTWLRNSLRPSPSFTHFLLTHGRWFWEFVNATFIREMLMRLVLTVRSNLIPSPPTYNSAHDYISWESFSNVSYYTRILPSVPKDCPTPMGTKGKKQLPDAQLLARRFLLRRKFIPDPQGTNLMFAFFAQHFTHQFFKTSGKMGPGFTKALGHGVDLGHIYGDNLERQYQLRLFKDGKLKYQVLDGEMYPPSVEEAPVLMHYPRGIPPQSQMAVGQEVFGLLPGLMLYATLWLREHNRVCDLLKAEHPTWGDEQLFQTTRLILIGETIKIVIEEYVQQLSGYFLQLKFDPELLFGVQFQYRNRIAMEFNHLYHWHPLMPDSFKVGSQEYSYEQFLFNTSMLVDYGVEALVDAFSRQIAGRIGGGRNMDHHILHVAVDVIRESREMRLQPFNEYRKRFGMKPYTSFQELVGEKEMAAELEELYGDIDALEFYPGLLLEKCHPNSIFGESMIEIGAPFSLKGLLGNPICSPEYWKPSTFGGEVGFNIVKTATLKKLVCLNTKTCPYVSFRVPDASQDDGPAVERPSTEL
In short: (§1)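 Recombinant enzyme reaction ran 2.5 minutes at room temperature, then was quenched with HCl and neutralized with NaOH. PGE2 formed with and without drug was quantified by EIA against standards in the same milieu. Percent inhibition versus control mean; IC50 by linear regression.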

[5] = target: T4, recombinant human Cox-2 (r-hu Cox-2) (Homo sapiens, UniProt P35354); test: Recombinant human PGHS-2 enzyme assay (RHUCX2); type: biochemical; conditions: for IC50: read-out: RHUCX2 IC50 (parenthetical value)
T4 construct: made in house; host or cells: baculovirus/Sf9 insect cells (microsomes)
T4 sequence (P35354 18-604): T2 sequence (P35354 18-604)
In short: as §1

[6] = system: carrageenan induced paw edema; test: Carrageenan induced paw edema (CPE) in rats; type: in vivo; conditions: 10 mpk oral, rat, 3 hours after carrageenan; read-out: CPE % Inhib. @ 10 mpk
Protocol: For oral administration, test compounds were suspended on the day of use in 100% polyethyleneglycol (PEG 400) with a motorized homogenizer equipped with a Teflon-coated pestle (TRI-R Instrument, Jamaica, N.Y.).
To compare the mean responses of the treatment groups, analysis of variance was applied. Percent inhibition values were determined by comparing the individual treatment mean values to the mean of the control group. Linear regression was used to estimate IC50's/ED50's in appropriate assays.
Hingpaw edema was […] in male rats as described by Winter et al., Proc. Soc. Exp. Biol. Med., 1962, 111, 544. Briefly, male Sprague-Dawley rats weighing between 170 and 190 g were administered test compounds orally 1 hour prior to the subplantar injection of 0.1 ml of 1% sodium carrageenan (lambda carrageenan, Sigma Chemical Co., St Louis, Mo.) into the right hindpaw. Right paw volumes (ml) were measured immediately following injection of carrageenan for baseline volume measurements using a Buxco plethysmograph (Buxco Electronics, Inc., Troy, N.Y.). Three hours after the injection of carrageenan, right paws were remeasured and paw edema calculated for each rat by subtracting the zero time reading from the 3 hour reading. Data are reported as mean percent inhibition +/−SEM. Statistical significance of results was analyzed by Dunnetts multiple comparison test where p<0.05 was considered statistically significant.

[7] = read-out: RHUCX2 % Inh. at Dose

T1 sequence (P23219 24-599): as above

Row | Compound | IC50 [1] | inhibition in vivo at 3 mg/kg [2] | melting point | IC50 [3] | inhibition at 100 µM [4] | IC50 [5] | further results
1 | NS(=O)(=O)c1ccc(-c2cnn(Cc3ccc(F)c(F)c3F)c(=O)c2-c2ccc(F)cc2)cc1 [Example 153, 2-(2,3,4-Trifluorobenzyl)-4-(4-fluorophenyl)-5-[4-(aminosulfonyl)phenyl]-3(2H)-pyridazinone] | 2950 nM | 51% | 218 to 220 °C | 46 nM | 54% | 62 nM | inhibition at 10 µM [4]: 35%
2 | CC(C)CCc1c(-c2ccc(S(N)(=O)=O)c(F)c2)cnn(CC(F)(F)F)c1=O [Example 226] | – | 40.5% | – | – | 0% | 1090 nM | inhibition in vivo at 10 mg/kg [6]: 21%
3 | CC(C)COc1c(-c2ccc(S(C)(=O)=O)cc2)cnn(-c2ccc(F)cc2)c1=O [Example 376, 2-(4-Fluorophenyl)-4-(2-methylpropoxy)-5-[4-(methylsulfonyl)phenyl]-3(2H)-pyridazinone] | – | 77.5% | 121 to 128 °C | – | 12% | 27 nM | inhibition in vivo at 10 mg/kg [6]: 17%
4 | CC(C)CCc1c(-c2ccc(S(C)(=O)=O)cc2)cnn(-c2cccc(Cl)c2)c1=O [Example 366, 2-(3-Chloropenyl)-4-(3-methylbutyl)-5-[4-(methysulfonyl)phenyl]-3(2H)-pydazinone] | 1620 nM | 63% | 60 to 65 °C | 2 nM | 0% | 30 nM | ED50 ([2]; Rattus norvegicus): 1.5 mg/kg
5 | CS(=O)(=O)c1ccc(-c2cnn(-c3ccc(F)c(Cl)c3)c(=O)c2Cc2ccccc2)cc1 [Example 248, 2-(3-Chloro-4-fluorophenyl)-4-benzyl-5-[4-(methylsulfonyl)phenyl]-3(2H)-pyridazinone] | – | 49% | – | 5 nM | 13% | 80 nM | inhibition at 10 µM ([1]; 10 μM, read-out: HWPX % Inhib. at Dose): 17%; inhibition at 30 µM ([1]; 30 μM, read-out: HWPX % Inhib. at Dose): 82%
6 | CC(C)COc1c(-c2ccc(S(N)(=O)=O)cc2)cnn(-c2ccc(F)cc2)c1=O [Example 397, 2-(4-Fluorophenyl)-4-(2-methylpropoxy)-5-[4-(aminosulfonyl)phenyl]-3(2H)-pyridazinone] | 13800 nM | 70% | 132 to 136 °C | 40 nM | 25% | – | inhibition at 0.01 µM [5, 7]: 39%; inhibition at 0.1 µM [5, 7]: 58%; inhibition at 1 µM [5, 7]: 93%
7 | CS(=O)(=O)c1ccc(-c2cnn(-c3ccc(F)c(F)c3)c(=O)c2-c2ccc(Cl)cc2)cc1 [Example 106, 2-(3,4-Difluorophenyl)-4-(4-chlorophenyl)-5-[4-(methylsulfonyl)phenyl]-3(2H)-pyridazinone] | 17500 nM | 47% | 187 to 188 °C | 30 nM | – | 135 nM | inhibition at 200 µM ([4]; 200 μM): 19%
8 | CC(C)CCc1c(-c2ccc(S(C)(=O)=O)cc2)cnn(-c2ccc(F)c(F)c2)c1=O [Example 256] | 4700 nM | 47% | 55 to 58 °C | 28 nM | 0% | 134 nM | –
9 | CC(C)(C)COc1c(-c2ccc(S(C)(=O)=O)cc2)cnn(-c2ccc(F)c(F)c2)c1=O [Example 349] | – | 63% | 126 to 128 °C | 41 nM | 0% | 86 nM | inhibition at 100 µM ([1]; 100 μM, read-out: HWPX % Inhib. at Dose): 34%
10 | CS(=O)(=O)c1ccc(-c2cnn(-c3cccc(Cl)c3)c(=O)c2Cc2ccccc2)cc1 [Example 367, 2-(3-Chlorophenyl)-4-benzyl-5-[4-(methylsulfonyl)phenyl]-3(2H)-pyridazinone] | – | 48% | 174 to 177 °C | 18 nM | 0% | 77 nM | inhibition at 0.3 µM ([1]; 0.3 μM, read-out: HWPX % Inhib. at Dose): 8%; inhibition at 1 µM ([1]; 1 μM, read-out: HWPX % Inhib. at Dose): 50%
11 | CS(=O)(=O)c1ccc(-c2cnn(-c3cccc(Cl)c3)c(=O)c2Oc2ccc(F)cc2)cc1 [Example 112, 2-(3-Chlorophenyl)-4-(4-fluorophenoxy)-5-[4-(methylsulfonyl)phenyl]-3(2H)-pyridazinone] | – | 42.5% | 211 to 213 °C | – | 5% | 136 nM | inhibition in vivo at 10 mg/kg [6]: 21%
12 | CC(C)CCc1c(-c2ccc(S(N)(=O)=O)cc2)cnn(-c2cccc(Cl)c2)c1=O [Example 392, 2-(3-Chlorophenyl)-4-(3-methylbutyl)-5-[4-(aminosulfonyl)phenyl]-3(2H)-pyridazinone] | 1950 nM | 60% | 167 to 170 °C | 20 nM | 56% | – | inhibition at 10 µM [4]: 35%; inhibition at 0.01 µM [5, 7]: 65%; inhibition at 0.1 µM [5, 7]: 82%
13 | CC(C)CCOc1c(-c2ccc(S(C)(=O)=O)cc2)cnn(C(C)(C)C)c1=O [Example 330, 2-(tert-Butyl)-4-(3-methylbutoxy)-5-[4-(methylsulfonyl)phenyl]-3(2H)-pyridazinone] | 16700 nM | 4.5% | – | 5 nM | 15% | – | inhibition at 0.01 µM [5, 7]: 5%; inhibition at 0.03 µM ([5]; 0.03 μM, read-out: RHUCX2 % Inh. at Dose): 72%; inhibition at 1 µM [5, 7]: 85%

Source: patent US20020028938A1, “Prostaglandin endoperoxide H synthase biosynthesis inhibitors” (priority 1997, published 2002)
